Measurements from patent publication US5753483A (priority 1995, dated 1998).

Key:
[1] = test system: UDP-GlcNAc pyrophosphorylase; settings: reverse direction, at 1 mM inorganic pyrophosphate
Procedure: (§1) When measured in the reverse direction, either a direct assay or an indirect assay could be used. […] The incubation mixtures contained the following components in a final volume of 50 μl: 5 mM sodium pyrophosphate, 250 uM UDP-[^3 H]GlcNAc (2.2 Ci/mmol), 100 mM Tris HCl buffer, pH 8.5, 2 mM MgCl2, and various amounts of enzyme at the different stages of purification. […] The suspension was vortexed vigorously for 2 minutes, and was then centrifuged in a microfuge. The supernatant liquid was removed and saved, and the charcoal was washed with 1 ml of water. The supernatant liquid from this wash was combined with the first supernatant liquid, and an aliquot was removed and counted, as a measure of the formation of GlcNAc-1-P.
(§2) For the indirect assay, a modification of the spectrophotometric method of Munch-Petersen, (1956) Acta Chim. Scand. […] The assay mixtures contained 50 mM Tris-HCl buffer, pH 7.5, 1 mM MgCl2, 0.5 mM ADP, 1 mM glucose, 0.5 mM NADP, 1 mM inorganic pyrophosphate, 2 mM UDP-HexNAc and 2.5 units each of nucleoside diphosphate kinase, hexokinase and glucose-6-P dehydrogenase.

[2] = biological target: T1, Pyrophosphorylase (Sus scrofa, UniProt F1S210); experiment: Specificity of pyrophosphorylase (reverse direction); assay type: biochemical, pig
T1 construct: 64 and 55 kDa bands; native about 125 kDa
Procedure: as §1, §2
The substrate specificity of the purified enzyme was examined in both the forward and the reverse direction.

[3] = test system: UDP-GlcNAc pyrophosphorylase; experiment: Inhibition of pyrophosphorolysis of UDP-[^3 H]GlcNAc by nucleotides (FIG. 3); assay type: biochemical, pig; settings: increasing concentrations; reverse direction
Procedure: Activity was measured in the reverse direction (i.e., production of GlcNAc-1-P) as indicated.
as §1

[4] = biological target: T2, UDP-GlcNAc pyrophosphorylase (Sus scrofa, UniProt F1S210); experiment: Photoaffinity labeling of purified pyrophosphorylase and its inhibition (FIG. 5); assay type: binding, pig; settings: unlabeled UDP-GalNAc or UDP-glucose
T2 construct: both 64 and 55 kDa bands photolabelled
Procedure: Enzyme was incubated with radioactive probe in the presence or absence of various inhibitors, and some of the incubations were exposed to UV light to activate the probe. Each incubation was treated with trichloroacetic acid to precipitate the protein, and the pellet was resuspended in SDS and subjected to SDS-PAGE. Radioactive proteins were detected by exposure to film. […]

[5] = test system: UDP-GlcNAc pyrophosphorylase; settings: from 10 μmol GalNAc-1-P or glucose-1-P, and UTP
Procedure: The reaction products, formed in either the forward direction (i.e., uridine diphosphate sugars), or in the reverse direction (i.e., UTP and sugar-i-P's), were isolated by chromatography on a 1×20
column of DEAE-cellulose (HCO3 -), equilibrated in 10 mM NH4 HCO3. After application of the sample, the column was washed with the same solution and the retained products were eluted with 200 ml of a linear 10 to 300 mM gradient of NH4 HCO3. Fractions were analyzed for nucleotides by measuring the absorption at 260 nm, for radioactivity by scintillation counting, and for hexosamine by the Reissig test (J. Biol. Chem., 217, 959-966, 1955) or the or the Elson Morgan assay (Wheat, R. W. (1966) Meth. Enzymol. 8, 60-78). Peak fractions were pooled and concentrated on a rotary evaporator and NH4 H CO3 was removed by evaporation in the presence of triethylamine. The triethylamine was in turn removed by evaporation in the presence of methanol.
The reaction products were identified by chromatography, either directly, or following various treatments such as digestion with phosphodiesterase or alkaline phosphatase, or acid hydrolysis. Nucleotides were identified by TLC in the following systems: PEI plates developed in 0.2M and 0.4M solutions of LiCl; cellulose plates in ethanol: 1M ammonium acetate, pH 7.3 (7:3), or silica gel plates in ethanol: 1M ammonium acetate, pH 5.0 (7:3). N-acetyl-hexosamines were released from nucleotides by mild acid hydrolysis (0.01 N HCl, 100° C., 15 minutes) and identified by chromatography on borate-treated paper in n-butanol:pyridine:water (6:4:3) as described earlier by Cardini and Leloir, (1953) Arch. Biochem. Biophys., 45, 317-324.
After deproteinization, the aqueous phase was applied to a column of DE-52 and sugar phosphates and nucleoside diphosphate sugars were separated with a gradient of NH4 HCO3, as shown in FIG. 4. […] The peak was pooled and subjected to TLC in 3 different solvent systems as described above.
The characterization of these products was also based on the products produced by phosphosdiesterase, mild acid hydrolysis and other treatments.

[6] = test system: sheep brain enzyme; settings: cited from earlier work
[7] = test system: enzyme from bacteria; settings: cited from earlier work
[8] = test system: UDP-GlcNAc pyrophosphorylase; settings: calf liver and Staphylococcus aureus preparations; cited from earlier work

T1 sequence (F1S210 1-505): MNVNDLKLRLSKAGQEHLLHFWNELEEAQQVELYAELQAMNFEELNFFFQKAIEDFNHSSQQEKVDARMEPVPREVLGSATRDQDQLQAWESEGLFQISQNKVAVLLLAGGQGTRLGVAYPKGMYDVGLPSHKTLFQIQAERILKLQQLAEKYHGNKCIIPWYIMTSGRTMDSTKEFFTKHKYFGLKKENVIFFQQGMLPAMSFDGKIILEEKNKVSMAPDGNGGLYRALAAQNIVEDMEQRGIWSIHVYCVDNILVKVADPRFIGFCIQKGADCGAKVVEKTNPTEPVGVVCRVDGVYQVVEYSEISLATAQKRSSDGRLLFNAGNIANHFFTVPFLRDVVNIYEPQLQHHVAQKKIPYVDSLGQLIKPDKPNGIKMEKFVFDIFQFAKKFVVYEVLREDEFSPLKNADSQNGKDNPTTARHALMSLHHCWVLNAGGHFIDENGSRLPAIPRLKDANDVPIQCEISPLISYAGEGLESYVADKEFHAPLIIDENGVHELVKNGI
T2 sequence (F1S210 1-505): as above

Structure (SMILES): CC(=O)N[C@H]1[C@@H](OP(=O)(O)OP(=O)(O)OC[C@H]2O[C@@H](n3ccc(=O)[nH]c3=O)[C@H](O)[C@@H]2O)O[C@H](CO)[C@H](O)[C@@H]1O [UDP-GalNAc, UDP-N-acetylgalactosamine]
- Km [1]: 200 µM
- Vmax [1]: 31.3 nmol/min
- substrate preference, reverse direction [2]: preferred UDP-GalNAc over UDP-GlcNAc
- Activity ([2]; 5 mM, PP = 1 mM): 19.7 nmol/min
- Relative Activity ([2]; 5 mM, PP = 1 mM, UDP-GalNAc = 100): 100%
- inhibition of reaction with UDP-[^3 H]GlcNAc [3]: inhibited by increasing concentrations
- inhibition of labeling [4]: also blocked, although not nearly as effectively
- amount formed [5]: 8.2 µmol
- amount formed, percent [5]: 82%
- activity as substrate (in words) [6]: not with UDP-GalNAc
- activity relative to UDP-GlcNAc [7]: 2.6%
- rate of phosphorolysis relative to UDP-GlcNAc [8]: about 2.8%
